{"source": "paper PMC2504292", "about": "(Nucleic Acids Research, 2008)", "key": {"[1]": {"molecular_target": "T1, PARN RRM (cap-binding domain of mouse PARN, residues 430-516) (Mus musculus, UniProt Q8VDG3)", "T1 sequence (Q8VDG3 430-516)": "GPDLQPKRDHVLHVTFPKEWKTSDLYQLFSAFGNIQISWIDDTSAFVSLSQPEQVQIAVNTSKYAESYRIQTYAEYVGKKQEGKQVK", "experiment": "isothermal titration calorimetry"}, "[2]": {"molecular_target": "T2, PARN RRM (cap-binding domain), NMR/ITC construct (mouse, UniProt Q8VDG3 430-516)", "T2 sequence": "T1 sequence (Q8VDG3 430-516)", "experiment": "NMR HSQC titration"}}}
{"molecule": "C[n+]1cn([C@@H]2O[C@H](COP(=O)(O)OP(=O)(O)OP(=O)(O)OC[C@H]3O[C@@H](n4cnc5c(=O)[nH]c(N)nc54)[C@H](O)[C@@H]3O)[C@@H](O)[C@H]2O)c2nc(N)[nH]c(=O)c21", "note": "[m7GpppG]", "values": [{"measurement": "Kd", "setting": "[1]", "result": "~45", "unit": "µM"}]}
{"molecule": "AAAAAAAAAA (ssRNA)", "note": "[A10 10-mer poly(A)]", "values": [{"measurement": "binding result", "setting": "[2]", "result": "no binding"}]}
